The values that follow come from patent publication US7998950B2, “Antiviral compounds” (Gilead Sciences, Inc., priority 2008, dated 2011).

One assay relates to HIV-IIIb. Kind of assay: Antiviral assay in MT-2 cells infected with HIV-IIIb. The conditions noted are these: Human immunodeficiency virus 1, IIIB, MT2, 120 h, MT-2 cells infected with HIV-IIIb, m.o.i. 0.01, 10% FBS, 5 days at 37° C., CellTiter-Glo chemiluminescence; read-out: EC50 in MT-2 cells. Format: cell-based. A general note: In ATP-based viability assays light output follows the ATP content of the culture.
The term EC50 denotes the concentration that produces a half-maximal response. Regarding `O=C(NCC1(CO)CCC1)c1c(O)c2ncc(Cc3ccc(F)cc3)c3c2n(c1=O)CC(F)(F)CN3` [Example 150], the EC50 came to 6 nM. Same read-out and setting: for `CNC(=O)c1c(O)c2ncc(Cc3ccc(F)cc3)c3c2n(c1=O)C=C(C(=O)NCC(C)(C)N(C)C)O3` [Example 119] the value was 2.4 nM; for `O=C(NCCOCc1ccccc1)c1c(O)c2ncc(Cc3ccc(F)cc3)c3c2n(c1=O)CCN3` [compound 32], 6 nM. The same measure, in the same setting: for `COCCNC(=O)c1c(O)c2ncc(Cc3ccc(F)cc3)c3c2n(c1=O)CC(F)(F)CN3` [A-10] the value was 4 nM; for `CNC(=O)c1c(O)c2ncc(Cc3ccc(F)cc3)c3c2n(c1=O)C=C(C(=O)NCC1(C#N)CC1)O3` [Example 138], 1.5 nM; for `CNC(=O)c1c(O)c2ncc(Cc3ccc(F)cc3)c3c2n(c1=O)C=C(C(=O)NCC(C)(C)O)O3` [Example 140], 3.5 nM. The same measure, in the same setting: in the case of `CNC(=O)c1c(O)c2ncc(Cc3ccc(F)cc3)c3c2n(c1=O)C=C(C(=O)NCC(F)(F)F)O3` [Example 115] it was 3.9 nM; in that of `CNC(=O)c1c(O)c2ncc(Cc3ccc(F)cc3)c3c2n(c1=O)C[C@@H](CO)O3` [A-67], 1.7 nM. Turning to `CNC(=O)c1c(O)c2ncc(Cc3ccc(F)cc3)c3c2n(c1=O)C=C(C(=O)N1CC(F)(F)C1)O3` [A-92], the EC50 is 21 nM. Still for that read-out and setting: in the case of `CC(C)(C)NC(=O)C1=Cn2c(=O)c(C(=O)NCCO)c(O)c3ncc(Cc4ccc(F)cc4)c(c32)O1` [Example 139] it was 2.4 nM.

On to `CCNC(=O)C1=Cn2c(=O)c(C(=O)NC)c(O)c3ncc(Cc4ccc(F)cc4)c(c32)O1` [A-90], for which the 50% effective concentration (EC50) was found to be 2.9 nM.

`O=C(NCCO)c1c(O)c2ncc(Cc3ccc(F)cc3)c3c2n(c1=O)CCC3` [compound 65]: the concentration for a half-maximal effect (EC50) stood at 1.5 nM.

On to `N#CCNC(=O)c1c(O)c2ncc(Cc3ccc(F)cc3)c3c2n(c1=O)CC(F)(F)CN3` [Example 143], for which the EC50 was determined as 4 nM. The same measure, in the same setting: in the case of `O=C(NCCN1CCNCC1)c1c(O)c2ncc(Cc3ccc(F)cc3)c3c2n(c1=O)CCO3` [compound 18] it was 20 nM. Still for that read-out and setting: for `O=C(NC1CC1)c1c(O)c2ncc(Cc3ccc(F)cc3)c3c2n(c1=O)CCCN3` [compound 50] the value was 17 nM; for `CC(C)(CO)CNC(=O)c1c(O)c2ncc(Cc3ccc(F)cc3)c3c2n(c1=O)CC(F)(F)CN3` [Example 145], 9 nM; for `CNC(=O)c1c(O)c2ncc(Cc3ccc(F)cc3)c3c2n(c1=O)C=C(C(=O)NCCOC(F)(F)F)O3` [Example 141], 3.7 nM. As to `COCCNC(=O)c1c(O)c2ncc(Cc3ccc(F)cc3)c3c2n(c1=O)CC(CO)O3` (centres unmarked) [A-27], the EC50 worked out at 4 nM. As for `CC(C)(CO)NC(=O)C1=Cn2c(=O)c(C(=O)NC3CC3)c(O)c3ncc(Cc4ccc(F)cc4)c(c32)O1` [Example 128], the EC50 is 7.1 nM. Still for that read-out and setting: in the case of `CNC(=O)c1c(O)c2ncc(Cc3ccc(F)cc3)c3c2n(c1=O)C[C@@H](C(=O)NCC(C)(C)C#N)O3` [Example 175] it was 2.4 nM; in that of `CNC(=O)C1=Cn2c(=O)c(C(=O)NCCOC)c(O)c3ncc(Cc4ccc(F)cc4)c(c32)O1` [A-87], 3.6 nM. The same measure, in the same setting: for `CNC(=O)[C@@H]1Cn2c(=O)c(C(N)=O)c(O)c3ncc(Cc4ccc(F)cc4)c(c32)O1` [Example 167] the value was 25.6 nM; for `C[C@@H](CO)NC(=O)c1c(O)c2ncc(Cc3ccc(F)cc3)c3c2n(c1=O)CC(F)(F)CN3` [A-13], 6.5 nM. The same measure, in the same setting: in the case of `CCNC(=O)c1c(O)c2ncc(Cc3ccc(F)cc3)c3c2n(c1=O)CC(F)(F)CN3` [A-12] it was 3 nM. For the compound `O=C(NCCCN1CCOCC1)c1c(O)c2ncc(Cc3ccc(F)cc3)c3c2n(c1=O)CC(F)(F)CN3` [Example 153], the half-maximal effective concentration (EC50) stood at 12 nM. Still for that read-out and setting: for `CNC(=O)[C@@H]1Cn2c(=O)c(C(=O)NCCOC)c(O)c3ncc(Cc4ccc(F)cc4)c(c32)O1` [Example 164] the value was 37 nM.

`CC(C)(O)CNC(=O)c1c(O)c2ncc(Cc3ccc(F)cc3)c3c2n(c1=O)CCN3` [compound 39]: the EC50 was found to be 9.5 nM. Still for that read-out and setting: in the case of `CC(C)(O)CNC(=O)c1c(O)c2ncc(Cc3ccc(F)cc3)c3c2n(c1=O)CC(F)(F)CN3` [A-14] it was 7 nM; in that of `CNC(=O)C1=Cn2c(=O)c(C(=O)NCCC#N)c(O)c3ncc(Cc4ccc(F)cc4)c(c32)O1` [A-88], 18 nM; in that of `CCN(CC)C(=O)C1=Cn2c(=O)c(C(=O)NC)c(O)c3ncc(Cc4ccc(F)cc4)c(c32)O1` [Example 103], 10 nM. On the same count and under the same terms, for `CNC(=O)c1c(O)c2ncc(Cc3ccc(F)cc3)c3c2n(c1=O)C[C@@H](Cn1ccnc1)O3` [Example 183] the value was 1.8 nM.

Take `CCNC(=O)C1=Cn2c(=O)c(C(=O)NCCOC)c(O)c3ncc(Cc4ccc(F)cc4)c(c32)O1` [Example 104]: the EC50 is 3 nM. Still for that read-out and setting: for `CNC(=O)c1c(O)c2ncc(Cc3ccc(F)cc3)c3c2n(c1=O)C=C(C(=O)N1CCOCC1(C)C)O3` [Example 107] the value was 25 nM. Still for that read-out and setting: in the case of `CNC(=O)c1c(O)c2ncc(Cc3ccc(F)c(Cl)c3)c3c2n(c1=O)C[C@@H](C(=O)NC)O3` [Example 177] it was 1.2 nM; in that of `CNC(=O)c1c(O)c2ncc(Cc3ccc(F)cc3)c3c2n(c1=O)C[C@@H](CN(C)C(=O)c1nnc(C)o1)O3` [Example 207], 4.6 nM. Still for that read-out and setting: for `CNC(=O)c1c(O)c2ncc(Cc3ccc(F)cc3)c3c2n(c1=O)C[C@@H](CC#N)O3` [Example 181] the value was 1.2 nM; for `CNC(=O)c1c(O)c2ncc(Cc3ccc(F)cc3)c3c2n(c1=O)CC(F)(F)CN3C` [Example 163], 18.5 nM.

In the case of `O=C(NCCO)c1c(O)c2ncc(Cc3ccc(F)cc3)c3c2n(c1=O)CC(CO)O3` (centres unmarked) [A-26], the concentration giving a half-maximal response (EC50) came to 16 nM. Still for that read-out and setting: for `COCCNC(=O)c1c(O)c2ncc(Cc3ccc(F)cc3)c3c2n(c1=O)C=C(C(=O)N1CCOCC1(C)C)O3` [Example 108] the value was 7.5 nM; for `C[C@@H](CO)NC(=O)c1c(O)c2ncc(Cc3ccc(F)cc3)c3c2n(c1=O)CCCN3` [compound 51], 4 nM; for `[2H]C([2H])([2H])NC(=O)c1c(O)c2ncc(Cc3ccc(F)cc3)c3c2n(c1=O)C=C(C(=O)NCC)O3` [Example 116], 2.5 nM. Same read-out and setting: in the case of `O=C(NCCc1ncc[nH]1)c1c(O)c2ncc(Cc3ccc(F)cc3)c3c2n(c1=O)CC(F)(F)CN3` [Example 146] it was 5.5 nM. The same measure, in the same setting: for `O=C(NCCN1CCNC1=O)c1c(O)c2ncc(Cc3ccc(F)cc3)c3c2n(c1=O)CCO3` [compound 14] the value was 5.5 nM; for `CCNC(=O)c1c(O)c2ncc(Cc3ccc(F)cc3)c3c2n(c1=O)C[C@@H](C(=O)NC)O3` [Example 165], 8 nM; for `CNC(=O)c1c(O)c2ncc(Cc3ccc(F)cc3)c3c2n(c1=O)C=C(C(=O)NCC1(O)CC1)O3` [Example 133], 7 nM. In the case of `O=C(NCCO)c1c(O)c2ncc(Cc3ccc(F)cc3)c3c2n(c1=O)CCN3` [compound 30], the EC50 amounted to 7 nM. On the same count and under the same terms, in the case of `O=C(NCCN1CCCC1)c1c(O)c2ncc(Cc3ccc(F)cc3)c3c2n(c1=O)CC(F)(F)CN3` [Example 156] it was 34 nM; in that of `N#CCCCNC(=O)c1c(O)c2ncc(Cc3ccc(F)cc3)c3c2n(c1=O)CC(F)(F)CN3` [A-17], 2.5 nM. The same measure, in the same setting: in the case of `CNC(=O)C1=Cn2c(=O)c(C(=O)NC)c(O)c3ncc(Cc4ccc(F)cc4)c(c32)O1` [A-82] it was 8 nM. As for `O=C(NCCN1CCNS1(=O)=O)c1c(O)c2ncc(Cc3ccc(F)cc3)c3c2n(c1=O)CC(F)(F)CN3` [Example 144], the EC50 was found to be 20 nM. On the same count and under the same terms, in the case of `CNC(=O)C(=O)NC[C@@H]1Cn2c(=O)c(C(=O)NC)c(O)c3ncc(Cc4ccc(F)cc4)c(c32)O1` [Example 199] it was 6.7 nM.

As for `COCCNC(=O)c1c(O)c2ncc(Cc3ccc(F)cc3)c3c2n(c1=O)C=C(C(=O)NCC1(O)CC1)O3` [Example 106], the concentration giving a half-maximal response (EC50) stood at 6 nM. Same read-out and setting: for `O=C(NCCCO)c1c(O)c2ncc(Cc3ccc(F)cc3)c3c2n(c1=O)CC(F)(F)CN3` [A-15] the value was 4 nM. Turning to `CNC(=O)c1c(O)c2ncc(Cc3ccc(F)cc3)c3c2n(c1=O)CC(CO)O3` (centres unmarked) [A-25], the EC50 stood at 5.5 nM.

Turning to `CCNC(=O)C1=Cn2c(=O)c(C(=O)NCCC#N)c(O)c3ncc(Cc4ccc(F)cc4)c(c32)O1` [Example 112], the EC50 was determined as 11.7 nM. Same read-out and setting: in the case of `CC(C)(C#N)CNC(=O)c1c(O)c2ncc(Cc3ccc(F)cc3)c3c2n(c1=O)CC(F)(F)CN3` [Example 154] it was 6 nM; in that of `CNC(=O)c1c(O)c2ncc(Cc3ccc(F)cc3)c3c2n(c1=O)C[C@@H](C(=O)NCC(C)(C)O)O3` [Example 174], 2.6 nM. With `CNC(=O)c1c(O)c2ncc(Cc3ccc(F)cc3)c3c2n(c1=O)C[C@@H](Cn1ccnc1C)O3` [Example 203], the concentration giving a half-maximal response (EC50) turned out to be 12 nM. Still for that read-out and setting: for `O=C(NCCCN1CCCC1=O)c1c(O)c2ncc(Cc3ccc(F)cc3)c3c2n(c1=O)CCN3` [compound 34] the value was 9.5 nM; for `CNC(=O)c1c(O)c2ncc(Cc3ccc(F)cc3)c3c2n(c1=O)C=C(C(=O)N1CCOCC1)O3` [A-83], 37 nM.

The assay is the same for the next values; noted with them: Human immunodeficiency virus 1, IIIB, MT2, 120 h, read-out: EC50 in MT-2 cells (nM).
As to `CNC(=O)c1c(O)c2ncc(Cc3ccc(F)cc3)c3c2n(c1=O)C=C(COC)O3` [Example 137], the half-maximal effective concentration (EC50) was determined as 5 nM.

As for `CNC(=O)c1c(O)c2ncc(Cc3ccc(F)cc3)c3c2n(c1=O)C=C(C(=O)N(C)C)O3` [A-81], the EC50 is 10.5 nM. Same read-out and setting: in the case of `CNC(=O)c1c(O)c2ncc(Cc3ccc(F)cc3)c3c2n(c1=O)C=C(c1nnc(C)o1)O3` [Example 130] it was 4.6 nM.

The same assay, now with this note: MT-2 cells infected with HIV-IIIb, m.o.i. 0.01, 10% FBS, 5 days at 37° C., CellTiter-Glo chemiluminescence; listed as A-177; read-out: EC50 in MT-2 cells.
Turning to `CCN(CC)C(=O)C1=Cn2c(=O)c(C(=O)NC)c(O)c3ncc(Cc4ccc(F)cc4)c(c32)O1` [Example 125], the EC50 worked out at 5.5 nM.

Still in this assay, the particulars now being: MT-2 cells infected with HIV-IIIb, m.o.i. 0.01, 10% FBS, 5 days at 37° C., CellTiter-Glo chemiluminescence; read-out: EC50 in MT-2 cells.
For the compound `CNC(=O)c1c(O)c2ncc(Cc3ccc(F)cc3)c3c2n(c1=O)CC(CO)(CO)O3` [A-109], the concentration giving a half-maximal response (EC50) was 7.1 nM.
